In US10046060B2, “Co-administration of an agent linked to an internalization peptide with an anti-inflammatory” (NoNO Inc., priority 2007, dated 2018):
Entries after “also recorded” stand apart in the source; their conditions may differ. Ends that are not written are not given here.

Assays:
Beagle dogs [1] = test: GLP cardiovascular telemetry study, escalating doses (CRM Study No. 691106); type: in vivo, dog
Protocol: In a GLP cardiovascular telemetry study in unrestrained conscious Beagle dogs (CRM Study No. 691106), 6 animals (3 males, 3 females) were administered escalating doses of Tat-NR2B9c (0.25, 1.0, or 5.0 mg/kg gross peptide), with a washout period of 3 days between dose levels. […] Moreover, the time-frame between the low dose (0.25 mg/kg) and the high dose (5.0 mg/kg) was about 6 days, i.e., of insufficient duration to allow the generation of an immune response. The effect is thus caused by a direct degranulation of mast cells causing histamine release.

Beagle dogs [2] = test: GLP cardiovascular telemetry study at 10 mg/kg (CRM Study No. 691429); type: in vivo, dog
Protocol: To obtain detailed cardiovascular information at the highest dose level tested in the 14-day dog repeated-dose toxicity study (i.e., 10 mg/kg), an additional GLP cardiovascular telemetry study in unrestrained, conscious, Beagle dogs was performed (CRM Study No. 691429). Six animals (3 males, 3 females) received vehicle in the morning and 10 mg/kg Tat-NR2B9c in the afternoon of the same day (at least 4 hours between doses). […] The female animals used in this additional cardiovascular study were obtained from the Charles River colony and were non-nave animals that had been previously used in the first cardiovascular study for Tat-NR2B9c (CRM Study No. 691106).

Sprague-Dawley rats = test: Non-GLP blood pressure study in anesthetized rats at 50 mg/kg; type: in vivo, rat
Protocol: In one experiment, 5 male Sprague-Dawley rats received a 50 mg/kg Tat-NR2B9c bolus dose over 3 minutes. Blood pressure was monitored via a femora arterial catheter.

Beagle dogs [3] = test: Non-GLP dose range study, single slow intravenous injection; type: in vivo, dog; conditions: for Severity of angio-neurotic oedema and urticaria: 12.5 mg/kg
Protocol: A non-GLP study was conducted to examine a dose range for Tat-NR2B9c, administered to Beagle dogs by a single, slow intravenous injection. Two animals (one male and one female Beagle dog) were dosed intravenously with Tat-NR2B9c on seven occasions. There was a 3-4 day wash-out period between the doses. The first dose was given at 2.5 mg/kg. […] There was no reaction in the female dog. […] The third dose was given at 12.5 mg/kg. […] The reaction in the male dog was assessed to be moderate, and in the female animal, the reaction was mild. The next dose was set at 20.0 mg/kg. […] The animal was treated with i.v. administration of benadryl and dexamethasone. BP at 5 minutes post-dosing was recorded as 37/13 mm Hg (nomial BP in a dog is ˜160/90). A decision was made not to dose the female animal.
The next doses were given in order to better understand the type of reactions seen in preceding doses. The fifth and sixth doses were set at 2.5 and 5.0 mg/kg.

humans = test: Safety, Tolerability and Pharmacokinetic Study in humans: adverse events; type: in vivo, human
Protocol: We carried out a Safety, Tolerability and Pharmacokinetic Study of Tat-NR2B9c in humans. Subjects were either normal, healthy, non-smoking males or post-menopausal or surgically sterile female subjects with a minimum age of 18 years. The subjects were either administered Tat-NR2B9c, Lot #: 124-134-001B, or were given placebo (Phosphate Buffered Saline), Lot #: 124-134-001A, administered as an intravenous infusion (10±1 minutes). Four subjects were dosed in each of Cohorts 1 to 3, and 10 subjects were dosed in each of Cohorts 4 to 8. All 62 subjects completed the study. Treatment periods for each cohort were as follows: Cohort 1: Sep. 14, 2006; Cohort 2: Sep. 26, 2006; Cohort 3: Oct. 6, 2006; Cohort 4: Oct. 20, 2006; Cohort 5: Nov. 6, 2006; Cohort 6: Dec. 4, 2006; Cohort 7: Dec. 17, 2006; Cohort 8: Feb. 25, 2007.
The safety assessment was performed on all subjects who received at least 1 dose during the course of the study. The incidents of all adverse events (AEs) were tabulated by treatment and subject number. Absolute values for vital signs, electrocardiogram (ECG) parameters, laboratory parameters and physical examinations were also documented and values outside the nomial range were flagged. Shifts from baseline values were tabulated. AEs were documented using investigator and Medical Dictionary for Regulatory Activities (MedDRA) terms.

[4] = Maximum Tolerated Dose in preclinical animal trials, dogs; conditions: dog, in vivo
[5] = Maximum Tolerated Dose in preclinical animal trials, rats; conditions: rat, in vivo
rats = test: Mean arterial pressure (MAP) in rats after Tat peptides with or without anti-inflammatory agents; conditions: 7.5 mg/kg bolus; FIG. 7

YGRKKRRQRRRKLSSIESDV [Tat-NR2B9c]
Dogs with transient drop in blood pressure (Beagle dogs [1]; 5 mg/kg): 4 of 6 | Duration of transient drop in blood pressure (Beagle dogs [1]; 5 mg/kg): approximately 30 minutes | Effects on blood pressure (Beagle dogs [1]; 0.25 or 1.0 mg/kg): No effects | Time post-dose over which increases in heart rate were observed (Beagle dogs [2]): up to 15 minutes | Decreases in blood pressure values (Beagle dogs [2]; individual animals at 5 to 10 minutes post-dose): up to 62% | Time of maximum effect on heart rate (Beagle dogs [2]; males and females): 10 min | Mean arterial pressure (Sprague-Dawley rats; 50 mg/kg bolus over 3 minutes, all animals, FIG. 6): transient reductions in mean arterial pressure; also recorded: drop in blood pressure | Respiratory effects (Sprague-Dawley rats; rat, 50 mg/kg): decreased tidal volume, respiratory rate and derived minute volume | Reaction (Beagle dogs [3]; 5.0 mg/kg, female dog): no reaction | Reaction (Beagle dogs [3]; 5.0 mg/kg, male dog): moderate reaction | Vital signs (heart rate, blood pressure, respiratory rate and body temperature) (Beagle dogs [3]; 7.5 mg/kg, both animals): stayed within the normal physiological ranges | Reaction (Beagle dogs [3]; 7.5 mg/kg, female dog): no reaction | Reaction (Beagle dogs [3]; 7.5 mg/kg, male dog): angio-neurotic edema of the soft tissue of the head and urticaria type of reaction | Severity of angio-neurotic oedema and urticaria (Beagle dogs [3]; female dog): mild | Severity of angio-neurotic oedema and urticaria (Beagle dogs [3]; male dog): moderate | Reaction (Beagle dogs [3]; 20.0 mg/kg, male dog): went into shock | Blood pressure at 5 minutes post-dosing (Beagle dogs [3]; 20.0 mg/kg, male dog, treated with benadryl and dexamethasone): 37/13 | Adverse reactions (Beagle dogs [3]; fifth dose 2.5 mg/kg): reddening of ear and face of the male dog | Signs of toxicity (Beagle dogs [3]; first dose 2.5 mg/kg, male and female dog): did not show any signs of toxicity | Conclusion of dose range study (Beagle dogs [3]; high doses): capable of inducing profound transient hypotension and urticaria-like skin reactions | AEs of the higher doses at the lower dose range (humans; 0.02 to 1.50 mg/kg): minimal or not present | Incidence of AEs vs lower dose groups and placebo (humans; 2.60 and 3.75 mg/kg dose groups): significantly more AEs; also recorded: higher | Serious Adverse Events (humans; all doses): No Serious Adverse Events (SAEs) were reported | Active treatment subjects with at least 1 AE (humans; all doses 0.02-3.75 mg/kg): 73.9% | Doses at which several AEs were frequently reported (humans; decreased blood pressure, paraesthesia, hypoaesthesia, erythema, rash, pruritus, dry mouth, nausea, feeling hot, flushing): ≥ 2.60 mg/kg | Subjects feeling hot (humans; subjects receiving Tat-NR2B9c): 28.3% | Subjects feeling hot (count) (humans; subjects receiving Tat-NR2B9c): 13/46 | Subjects with dry mouth (humans; subjects receiving Tat-NR2B9c): 19.6% | Subjects with dry mouth (count) (humans; subjects receiving Tat-NR2B9c): 9/46 | Subjects with flushing (humans; subjects receiving Tat-NR2B9c): 21.7% | Subjects with flushing (count) (humans; subjects receiving Tat-NR2B9c): 10/46 | Subjects with pruritis (humans; subjects receiving Tat-NR2B9c): 26.1% | Subjects with pruritis (count) (humans; subjects receiving Tat-NR2B9c): 12/46 | MTD [4]: 12.5 mg/kg | MTD [5]: 100 mg/kg | Effect on MAP (printed MAT) after injection (rats): rapid and transient reduction; also recorded: reduction in blood pressure
